Laboratory results from patent US20170253607A1, “LONG-ACTING HIV PROTEASE INHIBITOR” (Shionogi & Co., Ltd., priority 2014, published 2017).

Key:
[1] = Protein binding test (equilibrium dialysis, unbound ratio fu in serum); assay type: in vitro ADME; details: 37° C.; for rat_fu: rat serum, equilibrium dialysis 24 hours, 2 μg/mL
Method: Assay condition: Evaluation method; Equilibrium dialysis method, Reaction time; 24 hours, Reaction temperature; 37° C., Assay concentration; 2 μg/mL A solution of the compound was added to each serum and mixed to prepare the serum samples with above concentration. The serum sample was put into one side of an equilibrium dialysis apparatus with dialysis membrane and phosphate buffered saline (PBS) was also put to another side of the apparatus. The apparatus was incubated at 37° C. for 24 hours. After incubation, the serum and PBS samples were collected and the compound concentrations in both samples were measured by LC/MS/MS. Fu was calculated by dividing the concentration in PBS by the concentration in the serum.

[2] = Evaluation of total body clearance (CLtot), intravenous administration; assay type: in vivo, Sprague-Dawley (SD); details: rat (SD), intravenous administration 0.5-10 mg/kg; CLtot = dose/AUC
Method in brief: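 Plasma levels quantified by LC/MS/MS after intravenous tail-vein dosing (0.5-10 mg/kg, compound-dependent; n=2-3). AUC from pharmacokinetic analysis; total clearance calculated as dose/AUC.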

[3] = target: HIV-1 PR (Human immunodeficiency virus type 1 group M subtype B, UniProt P04585); assay: HIV-protease inhibitory activity assay (FRET peptide substrate); assay type: biochemical; details: Test Example 1
Method in brief: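 HIV-1 PR (0.83 ng) preincubated with compounds 20 min at room temperature in 0.1 mol/L NaAc, 0.5 mol/L NaCl, 1 mmol/L EDTA, 1 mmol/L DTT, 0.05% Tween 20, pH 4.8. Cleavage of HiLyte Fluor 488/QXL 520 FRET peptide (2 μmol/L) read after 60 minutes at 485/535 nm; IC50 from four-parameter logistic fit.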

SMILES	rat_fu [1]	rat_CLt [2]	IC50 [3]	fraction unbound at 24 h, 2 μg/mL ([1]; serum, equilibrium dialysis, 24 hours, read-out: Serum protein binding rate (converted))
COc1ccc(S(=O)(=O)N(CC(C)C)C[C@@H](O)[C@H](Cc2ccc(OCc3ccccc3-c3sc4c(c3C(=O)O)CC(C)(C)CC4)cc2)NC(=O)O[C@H]2CO[C@@]3(C)OCC[C@@H]23)cc1 [Compound I-1]	<0.1%	0.542 mL/min/kg	1.29 nM	
COc1ccc(S(=O)(=O)N(CC(C)C)C[C@@H](O)[C@H](Cc2ccc(OCc3ccccc3-c3sc4c(c3C(=O)O)CCCC4=O)cc2)NC(=O)O[C@H]2CO[C@@]3(C)OCC[C@@H]23)cc1 [Compound I-2]	<0.1%	5.11 mL/min/kg	1.05 nM	
COc1ccc(S(=O)(=O)N(CC(C)C)C[C@@H](O)[C@H](Cc2ccc(O[C@@H]3CCN(c4ccccc4-c4sc5c(c4C(=O)O)CC(C)(C)CC5)C3)cc2)NC(=O)O[C@H]2CO[C@@]3(C)OCC[C@@H]23)cc1 [Compound I-6]	<0.1%	1.22 mL/min/kg	1.36 nM	
COc1ccc(S(=O)(=O)N(CC(C)C)C[C@@H](O)[C@H](Cc2ccc(OC(C)(C)C(=O)Nc3sc4c(c3C(=O)O)CC(C)(C)CC4)cc2)NC(=O)O[C@H]2CO[C@@]3(C)OCC[C@@H]23)cc1 [Compound I-7]	<0.1%	0.238 mL/min/kg	2.31 nM	
COc1ccc(S(=O)(=O)N(CC(C)C)C[C@@H](O)[C@H](Cc2ccc(CCc3sc4c(c3C(=O)O)CC(C)(C)CC4)cc2)NC(=O)O[C@H]2CO[C@@]3(C)OCC[C@@H]23)cc1 [Compound I-12]	<0.1%	2.9 mL/min/kg	1.82 nM	
CC(C)CN(C[C@@H](O)[C@H](Cc1ccc(CCc2sc3c(c2C(=O)O)CC(C)(C)CC3)cc1)NC(=O)O[C@H]1CO[C@@]2(C)OCC[C@@H]12)S(=O)(=O)c1ccc2nc(N)sc2c1 [Compound I-15]	<0.1%	4.86 mL/min/kg	2.27 nM	
COc1ccc(S(=O)(=O)N(CC(C)C)CC(O)C(Cc2ccc(OCc3ccccc3-c3sc4c(c3C(=O)O)CC(C)(C)CC4)cc2)NC(=O)OC2CC3OCC(O)C3C2)cc1 (stereo not shown) [Compound I-29]	<0.1%	1.54 mL/min/kg	1.41 nM	
COc1ccc(S(=O)(=O)N(CC(C)C)C[C@@H](O)[C@H](Cc2ccc(OCc3ccccc3-c3sc4c(c3C(=O)O)CC(C)(C)CC4)cc2)NC(=O)[C@H](CC(N)=O)NC(=O)c2ccc3ccccc3n2)cc1 [Compound I-30]	<0.1%	1.52 mL/min/kg	3.67 nM	
CC(C)CN(CC(O)C(Cc1ccc(CCc2sc3c(c2C(=O)O)CC(C)(C)CC3)cc1)NC(=O)OC1COC2(C)OCCC12)S(=O)(=O)c1ccc(N)cc1 (stereo not shown) [Compound I-43]	<0.1%	3.19 mL/min/kg	2 nM	
COc1ccc(S(=O)(=O)N(CC(C)C)CC(O)C(Cc2ccc(OCc3ncccc3-c3ccc(-c4sc5c(c4C(=O)O)CC(C)(C)CC5)cc3)cc2)NC(=O)OC2COC3(C)OCCC23)cc1 (stereo not shown) [Compound I-44]	<0.1%	0.535 mL/min/kg	1.09 nM	
COc1ccc(S(=O)(=O)N(CC(C)C)CC(O)C(Cc2ccc(N(Cc3ccccc3)Cc3sc4c(c3C(=O)O)CC(C)(C)CC4)cc2)NC(=O)OC2COC3(C)OCCC23)cc1 (stereo not shown) [Compound I-47]	<0.1%	3.51 mL/min/kg	5.41 nM	
COc1ccc(S(=O)(=O)N(CC(C)C)CC(O)C(Cc2ccc(OCc3ccccc3-c3oc4c(c3C(=O)O)CC(C)(C)CC4)cc2)NC(=O)OC2COC3(C)OCCC23)cc1 (stereo not shown) [Compound I-49]	<0.1%	2.23 mL/min/kg	2.5 nM	
CC(C)CN(CC(O)C(Cc1ccc(OCc2ccccc2-c2sc3c(c2C(=O)O)CC(C)(C)CC3)cc1)NC(=O)OC1COC2(C)OCCC12)S(=O)(=O)c1ccc2nc(N)sc2c1 (stereo not shown) [Compound I-51]	<0.1%	1.47 mL/min/kg	2.65 nM	
COc1ccc(S(=O)(=O)N(CC(C)C)CC(O)C(Cc2ccc(OCc3ccccc3-c3sc4c(c3C(=O)O)CC(C)(C)CC4)cc2)NC(=O)OC2COC3(C)OCC(OCc4ccccc4)C23)cc1 (stereo not shown) [Compound I-55]	<0.1%	0.752 mL/min/kg	7.34 nM	
COc1ccc(S(=O)(=O)N(CC(C)C)CC(O)C(Cc2ccc(OCc3ccccc3-c3sc(N(C4CCCCC4)C4CCCCC4)nc3C(=O)O)cc2)NC(=O)OC2COC3(C)OCCC23)cc1 (stereo not shown) [Compound I-74]	<0.1%	3.88 mL/min/kg	1.71 nM	
COc1ccc(S(=O)(=O)N(CC(C)C)CC(O)C(Cc2ccc(OCc3cc(C#N)ccc3-c3sc4c(c3C(=O)O)CC(C)(C)CC4)cc2)NC(=O)OC2COC3(C)OCCC23)cc1 (stereo not shown) [Compound I-79]	<0.1%	3.15 mL/min/kg	1.74 nM	

SMILES	rat_fu [1]	rat_CLt [2]	IC50 [3]	fraction unbound at 24 h, 2 μg/mL ([1]; serum, equilibrium dialysis, 24 hours, read-out: Serum protein binding rate (converted))
COc1ccc(S(=O)(=O)N(CC(C)C)CC(O)C(Cc2ccc(OCc3ncccc3-c3sc4c(c3C(=O)O)CC(C)(C)CC4)cc2)NC(=O)OC2COC3(C)OCCC23)cc1 (stereo not shown) [Compound I-88]	<0.1%	2.5 mL/min/kg	0.86 nM	
COc1ccc(S(=O)(=O)N(CC(C)C)CC(O)C(Cc2ccc(OCc3ncc(Cl)cc3-c3sc4c(c3C(=O)O)CC(C)(C)CC4)cc2)NC(=O)OC2COC3(C)OCCC23)cc1 (stereo not shown) [Compound I-93]	<0.1%	2.22 mL/min/kg	0.99 nM	
COc1ccc(S(=O)(=O)N(CC(C)C)CC(O)C(Cc2ccc(OCc3ccccc3-c3sc4c(c3C(=O)O)CC(C)(C)CC4)cc2)NC(=O)OC2COC3(CO)OCCC23)cc1 (stereo not shown) [Compound I-99]	<0.1%	0.576 mL/min/kg	0.81 nM	
COc1ccc(S(=O)(=O)N(CC(C)C)CC(O)C(Cc2ccc(OC3CCCN(c4ccccc4-c4sc5c(c4C(=O)O)CC(C)(C)CC5)C3)cc2)NC(=O)OC2COC3(C)OCCC23)cc1 (stereo not shown) [Compound I-102]	<0.1%	4.24 mL/min/kg	3.83 nM	
COc1ccc(S(=O)(=O)N(CC(C)C)CC(O)C(Cc2ccc(CCc3sc4c(c3C(=O)O)CC(C)(C)CC4(C)C)cc2)NC(=O)OC2COC3(C)OCCC23)cc1 (stereo not shown) [Compound I-105]	<0.1%	2.29 mL/min/kg	2.42 nM	
CC1(C)CCc2sc(NC(=O)c3ccccc3CNc3ccc(CC(NC(=O)OC4COC5OCCC45)C(O)CN(CC4CCCC4)S(=O)(=O)c4ccc5c(c4)OCO5)cc3)c(C(=O)O)c2C1 (stereo not shown) [Compound I-858]		0.142 mL/min/kg	4.23 nM	
CC1(C)CCc2sc(NC(=O)c3ccccc3CNc3ccc(CC(NC(=O)OC4COC5OCCC45)C(O)CN(CC4CCCC4)S(=O)(=O)c4ccc5ncsc5c4)cc3)c(C(=O)O)c2C1 (stereo not shown) [Compound I-859]		0.2 mL/min/kg	3.41 nM	
COc1ccc(S(=O)(=O)N(CC2CCC2)CC(O)C(Cc2ccc(NCc3ccccc3C(=O)Nc3sc4c(c3C(=O)O)CC(C)(C)CC4)cc2)NC(=O)OC2COC3OCCC23)cc1 (stereo not shown) [Compound I-860]		0.0981 mL/min/kg	3.56 nM	
CC1(C)CCc2sc(NC(=O)c3ccccc3CNc3ccc(CC(NC(=O)OC4COC5OCCC45)C(O)CN(CC4CCC4)S(=O)(=O)c4ccc5c(c4)OCO5)cc3)c(C(=O)O)c2C1 (stereo not shown) [Compound I-861]		0.0804 mL/min/kg	2.8 nM	
CC1(C)CCc2sc(NC(=O)c3ccccc3CNc3ccc(CC(NC(=O)OC4COC5OCCC45)C(O)CN(CC4CCC4)S(=O)(=O)c4ccc5ncsc5c4)cc3)c(C(=O)O)c2C1 (stereo not shown) [Compound I-862]		0.14 mL/min/kg	2.61 nM	
COc1ccc(S(=O)(=O)N(CC2CCC2)CC(O)C(Cc2ccc(NCc3cc(C(F)(F)F)ccc3-c3sc4c(c3C(=O)O)CC(C)(C)CC4)cc2)NC(=O)OC2COC3OCCC23)cc1 (stereo not shown) [Compound I-869]		1.15 mL/min/kg	6.45 nM	
COc1ccc(S(=O)(=O)N(CC(C)C)CC(O)C(Cc2ccc(NCC3CCCC3c3sc4c(c3C(=O)O)CC(C)(C)CC4)cc2)NC(=O)OC2COC3OCCC23)cc1 (stereo not shown) [Compound I-877]		2.31 mL/min/kg	2.12 nM	
COc1ccc(S(=O)(=O)N(CC(C)C)CC(O)C(Cc2ccc(NCc3ncccc3C(=O)Nc3sc4c(c3C(=O)O)CC(C)(C)CC4)cc2)NC(=O)OC2COC3OCCC23)cc1 (stereo not shown) [Compound I-882]		0.26 mL/min/kg	2.28 nM	
COc1ccc(S(=O)(=O)N(CC(C)C)CC(O)C(Cc2ccc(NCc3ccccc3-c3sc4c(c3C(=O)O)CC(C)(C)CC4)cc2)NC(=O)OC2COC3(C)OCCC23O)cc1 (stereo not shown) [Compound I-890]		0.652 mL/min/kg	1.74 nM	
CC(C)CN(C[C@@H](O)[C@H](Cc1ccccc1)NC(=O)O[C@H]1CO[C@H]2OCC[C@H]21)S(=O)(=O)c1ccc(N)cc1 [Darunavir, (3R,3aS,6aR)-hexahydrofuro[2,3-b]furan-3-yl[(1S,2R)-3-{[(4-aminophenyl)sulfonyl] (2-methylpropyl)amino}-1-benzyl-2-hydroxypropyl]carbamate, reference compound]				0.903
